Consider 32 compounds from PubChem BioAssay AID504687 (Sanford-Burnham Center for Chemical Genomics, 2011).

Broadly, the IC50 is the point on the concentration scale where inhibition reaches its midpoint.

Calls of active or inactive are those of the source. No rule for the calls is given here.

For the experiment, the target named is Ubiquitin-conjugating enzyme E2 N (Homo sapiens) (UniProt P61088). Description: UBC13 polyubiquitin chain formation inhibitors, SAR follow-up, biochemical, TR-FRET (AID 504687).
Sequence of Ubiquitin-conjugating enzyme E2 N (Homo sapiens) (P61088 whole entry, looked up): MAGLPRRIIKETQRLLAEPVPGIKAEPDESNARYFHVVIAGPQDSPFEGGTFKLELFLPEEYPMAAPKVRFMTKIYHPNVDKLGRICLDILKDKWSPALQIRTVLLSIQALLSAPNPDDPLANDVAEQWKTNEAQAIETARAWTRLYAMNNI

As to `CC(=O)Nc1ccc(OCC(O)CN2CCN(CCN3C(=O)c4cccc5cccc(c45)C3=O)CC2)cc1` (configuration not stated), the IC50 is 17.4 µM.

As for `Cc1ccc(NC(=O)C2CCN(c3ncnc4c3nc3n4CCCCC3)CC2)cc1Cl`, the IC50 is 3.62 µM.

`COc1ccc(C)c2sc(N(CCCN(C)C)C(=O)c3ccc(S(=O)(=O)N(C)C)cc3)nc12`: the IC50 was 8.72 µM.

As to `O=C(CCCCCN1C(=O)c2ccccc2C1=O)Nc1ccc(S(=O)(=O)Nc2ncccn2)cc1`, the IC50 was > 100 µM (inactive).

On to `O=C(CCCCCN1C(=O)c2ccccc2C1=O)Nc1nc(C2CC2)cs1`, for which the IC50 is > 100 µM (inactive).

As for `Cc1ccc2nc(N(CCCN(C)C)C(=O)c3ccc(S(=O)(=O)N4CCc5ccccc5C4)cc3)sc2c1`, the IC50 is 4.83 µM.

For `CCCN1CCN(C(=O)C2CCN(c3ncnc4c3nc3n4CCCCC3)CC2)CC1`, the IC50 is 3.42 µM.

For `CCCCOC(=O)c1cccc(NC(=O)CCCCCN2C(=O)c3ccccc3C2=O)c1`, the IC50 entry is “inactive”.

As for `N#Cc1ccccc1Cn1c(=O)n(CCCC(=O)NC2CCN(Cc3ccccc3)CC2)c(=O)c2ccccc21`, the IC50 was 0.63 µM.

On to `O=C(CCCCCN1C(=O)c2cccc3cccc(c23)C1=O)NCCO`, for which the IC50 is 12.7 µM.

`COc1ccc(OC)c2sc(N(CCCN(C)C)C(=O)c3ccc(S(=O)(=O)N4CCc5ccccc5C4)cc3)nc12`: the IC50 is 0.79 µM.

For `CC1CCCC(C)N1CCCNC(=O)C1CCCN(c2ncnc3c2nc2n3CCCCC2)C1` (configuration not stated), the IC50 was 12.3 µM.

In the case of `Cc1[nH]c2c(Cl)c(Cl)ccc2c1CCNC(=O)CCCCCN1C(=O)c2ccccc2C1=O`, the IC50 was 0.67 µM.

Take `CCOC(=O)c1c(NC(=O)COc2ccccc2C#N)sc2c1CC(C)(C)NC2(C)C`: the IC50 was 2.35 µM.

On to `CN(C)CCCN(C(=O)c1ccc(S(=O)(=O)N2CCCC2)cc1)c1nc2ccc(Br)cc2s1`, for which the IC50 was 6.86 µM.

Regarding `CCc1ccc(OCC(O)CN2CCC(CN3C(=O)c4cccc5cccc(c45)C3=O)CC2)cc1` (configuration not stated), the half-maximal inhibitory concentration (IC50) was 8.76 µM.

For `CC(C)(C)c1ccc(OCC(O)CN2CCN(CCN3C(=O)c4cccc5cccc(c45)C3=O)CC2)cc1` (configuration not stated), the IC50 was 9.47 µM.

As to `CCOc1ccc(NC(=O)Cn2c(=O)n(CCCC(=O)NC3CCN(Cc4ccccc4)CC3)c(=O)c3ccccc32)cc1`, the IC50 was 3.06 µM.

For `O=C(NCCCN1CCN(c2ccc(F)cc2)CC1)C1CCCN(c2ncnc3c2nc2n3CCCCC2)C1` (configuration not stated), the IC50 was 1.92 µM.

Take `COc1ccccc1NC(=S)NC(=O)CCCCCN1C(=O)c2ccccc2C1=O`: the IC50 is > 100 µM (inactive).

For the compound `O=C(CCCCCN1C(=O)c2ccccc2C1=O)Nc1ccc(S(=O)(=O)N2CCCCC2)cc1`, the IC50 was 0.47 µM.

Turning to `Cc1cccc(C)c1NC(=O)Cn1c(=O)n(CCCC(=O)NC2CCN(Cc3ccccc3)CC2)c(=O)c2ccccc21`, the IC50 is 1.69 µM.

On to `CN(C)CCCn1c(SCC(=O)Nc2nc(-c3cccc(Br)c3)cs2)nc2ccccc2c1=O`, for which the IC50 was 4.18 µM.

Turning to `O=C1c2cccc3cccc(c23)C(=O)N1CCN1CCN(CC(O)COc2ccc3c(c2)OCO3)CC1` (configuration not stated), the IC50 is 6.68 µM.

As for `O=C(CCCn1c(=O)c2ccccc2n(Cc2ccc(Cl)cc2)c1=O)NC1CCN(Cc2ccccc2)CC1`, the concentration for half-maximal inhibition (IC50) is 0.35 µM.

Regarding `O=C1c2cccc3cccc(c23)C(=O)N1CCN1CCN(CC(O)COc2ccc(Cl)cc2)CC1` (configuration not stated), the IC50 was 0.9 µM.

Consider `O=C1c2cccc3cccc(c23)C(=O)N1CC1CCN(CC(O)COCc2ccc3c(c2)OCO3)CC1` (configuration not stated), for which the IC50 was 1.9 µM.

Take `Cc1ccc2c(c1)C1CN(C)CCC1N2C(=O)CCCN1C(=O)c2cccc3cccc(c23)C1=O` (configuration not stated): the IC50 was 3.92 µM.

In the case of `O=C(c1ccc(S(=O)(=O)N2CCCC2)cc1)N1CCC(CN2C(=O)c3cccc4cccc(c34)C2=O)CC1`, the IC50 was 4.19 µM.

Consider `O=C(C1CCN(c2ncnc3c2nc2n3CCCCC2)CC1)N1CCC(Cc2ccccc2)CC1`, for which the IC50 is 15 µM.

As to `CCOc1ccc2nc(N(CCCN(C)C)C(=O)c3ccc(C(=O)c4ccccc4)cc3)sc2c1`, the IC50 is 3.4 µM.

With `Cc1ccccc1NC(=S)NC(=O)CCCCCN1C(=O)c2ccccc2C1=O`, the IC50 is > 100 µM (inactive).
